From article PMC6813295, “A tumour-selective cascade activatable self-detained system for drug delivery and cancer imaging” (Nature Communications, 2019) come the findings set out here.

The test system of one series is H460 cells. Kind of series: Flow cytometry labelling ratio of subcultured cells. Conditions: 50 μM, 37 °C, 2 h; for labelling ratio of H460 cells at the third generation: subcultured at 24 h interval. The class given is cell-based, human. How it is done:
Supplementary Figure 24∣Flow cytometry histograms of H460 cells treated with molecule 1, 2 and
3 (50 μM) at 37 °C for 2 h, respectively, and then subcultured for designated generations (a 24 h
interval). The untreated H460 cells were used as the control group.
(§1) (1 picture or pasted object on this page, not shown here)

Series [1] can be described thus: Organ biodistribution from fluorescence of tissue lysates. Conditions: female, Balb/c nude, mouse, in vivo, iv, 14 mg/kg. Here is the method:
(§2) Animal experiments were performed in accordance with the Guide for the Care and Use of Laboratory Animals and approved by the Institutional Animal Care and Use Committee (IACUC) of the National Center for Nanoscience and Technology (NCNST), China. Female Balb/c nude mice (6–8 weeks, 18–22 g) were purchased from Vital River Laboratory Animal Technology Co. Ltd. H460 cells were subcutaneously implanted into these mice on the right flank. Then the mice were randomly grouped (n = 3). When the tumour grew to a single aspect of about 0.5 cm, we injected the molecules 1, 2 and 3 intravenously in the same dose of 14 mg/kg in PBS solution, respectively. Fluorescence images were measured by a Maestro II in vivo imaging system (CRi) at 1, 2, 4, 6, 8, 12, 24, 48, 72, 96 and 120 h post injection. Further, tumours and other major organs (i.e., heart, liver, spleen, lung and kidney) were collected for ex vivo fluorescence imaging at 48 h post injection. The organ biodistribution of the 1, 2 and 3 was examined using H460 xenografts mice. The mice were sacrificed at 2, 4, 8, 12, 24 or 48 h post injection. Finally, all the major organs and tumour were collected, weighed, and homogenized (0.3 mL of lysis buffer per 100 mg of tissues). The homogeneous tissue solutions were obtained for fluorescence imaging by IVIS Spectrum CT. Known concentrations of compound 1, 2 or 3 are used to make the standard curve (concentration from 2.8 to 25.2 μg/mL), the “Predicted R-Squared” value of 0.99. Then we utilized this standard curve to measure the molecule content in each tissue. In addition, EJ xenograft tumour mice model was built, as above described, to validate the generality of the strategy.
Supplementary Figure 35∣ Quantitative analysis of the fluorescence intensity. In order to ensure the accuracy of the results, we added a standard solution in every tested 96 -well plate. The fluorescence property of molecules 1, 2 and 3 were identical. We take molecule 1 as example to illustrate the quantitative analysis. a. The top view of fluorescence images of a serial concentration of molecule 1 by Maestro II. The number from 1 to 11 represented 2.8, 5.6, 8.4, 11.2, 14.0, 16.8, 19.6, 22.4, 25.2, 28.0, 35.0 (μg/mL), respectively. The control group represented PBS buffer. b.
Fluorescence intensity (relative to the background signal) increase d linearly with the concentration […]
as §1
Supplementary Figure 36 ∣ Representative NIR fluorescence images of tissue lysates. The molecules 1, 2 and 3 (14 mg/kg, n = 3) on H460 tumour-bearing mice after intravenous administration in three groups. The mice were sacrificed at 2 h, 4 h, 8 h, 12 h, 24 h or 48 h post injection . […] The homogenous tissue solutions were obtained for fluorescence imaging. […]

Series [2] deals with H460 tumour-bearing nude mice. In words: Pharmacokinetic parameters in tumour (DAS2.0). It is filed as in vivo, mouse. Conditions: IV 14 mg/kg; for AUC0→t / AUC0→∞ / CL / MRT(0-t), mean retention time / Tmax / t1/2β, elimination half-life: in tumour, means ± SD n = 3; for AUC0→t: 0–48 h. Here is the method:
as §2
Supplementary Table 1︱Pharmacokinetic parameters of intravenously-administered 1, 2 and 3 in […]
Data are presented as means ± SD (n = 3). t1/2β, elimination half -life; CL, plasma clearance; Cmax, maximum concentration; Tmax, peak time ; MRT: mean retention time; AUC(0 -t), area under the 1, 2 and 3 concentration-time curve from time zero to the last quantifiable value; AUC(0 -∞), area und er the 1, 2 and 3 concentration -time curve from time zero to infinity, which represents the total drug exposure over time. h, hour(s).

Where [3] appears, read: fluorescence of diluted tissue lysates, mean ± s.d. n = 3, read-out: tumour uptake / accumulation efficiency at 48 h post injection.

SMILES strings stand for the structures. Like-named read-outs stand apart in the source and are kept apart here. Where a SMILES comes first, the peptide text is derived from it. The star is where a group is joined. X1 = CC1(C)C(=CC=C2CCCC(C=CC3=[N+](CCCCCC(=O)O)c4ccccc4C3(C)C)=C2*)N(CCCCCC(=O)O)c2ccccc21

As for `CC[C@H](C)[C@H](NC(=O)[C@@H]1CCCN1C(=O)[C@@H](NC(=O)[C@H](C)N)C(C)C)C(=O)N[C@@H](C)C(=O)N[C@@H](CCC(N)=O)C(=O)N[C@@H](CCCCN)C(=O)N[C@@H](CC(=O)O)C(=O)N[C@@H](CCC(=O)O)C(=O)N[C@H](C(=O)N[C@@H](CC(=O)O)C(=O)N[C@@H](CCCCN)C(=O)N[C@@H](CC(C)C)C(=O)N[C@H](C(=O)N[C@@H](Cc1ccccc1)C(=O)N[C@@H](Cc1ccccc1)C(=O)N[C@@H](C)C(=O)N[C@@H](CCC(=O)O)C(=O)N[C@@H](CSC1=C(C=CC2=[N+](CCCCCC(=O)O)c3ccccc3C2(C)C)CCCC1=CC=C1N(CCCCCC(=O)O)c2ccccc2C1(C)C)C(=O)NCC(=O)O)C(C)C)C(C)C` [molecule 1] (H-AVPIAQKDEVDKLVFFAEC(X1)G-OH), in the series on H460 cells (compared to untreated cells), the “labelling ratio of H460 cells at the first generation” value is reported as 100%. In addition, in the series with H460 cells, the “labelling ratio of H460 cells at the third generation” value is reported as “above 16.4%”. Moreover, in series [1] (setting [3]), the tissue uptake at 48 h is 9.2 ± 0.5 %ID/g. In addition, in series [1] (fluorescence of tissue lysates, mean ± s.d. n = 3, read-out: liver retention at 48 h post injection), the tissue uptake at 48 h was 4.1 ± 0.2 %ID/g. Further, in series [2], the “AUC0–48h in tumour of molecule 1 relative to 2” value is “six-fold”, the “AUC0–48h in tumour of molecule 1 relative to 3” value is reported as “three-fold”, the AUC0→t came to 71.2 ± 4.7 mg·h/g and the “AUC0→∞” value was 145.9 ± 1.0 mg·h/g. Further, in series [2], the CL amounted to 1.3 ± 0.5 mL/min/kg; the “MRT(0-t), mean retention time” value worked out at 23.4 ± 0.2 h; the Tmax was 4.0 ± 0 h; the “t1/2β, elimination half-life” value is given as 69.3 ± 0 h.

`CSCC[C@H](N)C(=O)N[C@@H](CC(=O)O)C(=O)N[C@@H](CCC(=O)O)C(=O)N[C@@H](CCCCN)C(=O)N[C@@H](C)C(=O)N[C@@H](CCC(N)=O)C(=O)N[C@@H](CCCCN)C(=O)N[C@@H](CC(=O)O)C(=O)N[C@@H](CCC(=O)O)C(=O)N[C@H](C(=O)N[C@@H](CC(=O)O)C(=O)N[C@@H](CCCCN)C(=O)N[C@@H](CC(C)C)C(=O)N[C@H](C(=O)N[C@@H](Cc1ccccc1)C(=O)N[C@@H](Cc1ccccc1)C(=O)N[C@@H](C)C(=O)N[C@@H](CCC(=O)O)C(=O)N[C@@H](CSC1=C(C=CC2=[N+](CCCCCC(=O)O)c3ccccc3C2(C)C)CCCC1=CC=C1N(CCCCCC(=O)O)c2ccccc2C1(C)C)C(=O)NCC(=O)O)C(C)C)C(C)C` [molecule 2] (H-MDEKAQKDEVDKLVFFAEC(X1)G-OH; N-terminus assumed): the “labelling ratio of H460 cells at the third generation” value in the series with H460 cells worked out at 6.83%. In addition, the tissue uptake at 48 h in series [1] (setting [3]) came out at 4.2 ± 0.1 %ID/g. Moreover, in series [2], the AUC0→t amounted to 12.2 ± 1.9 mg·h/g; the “AUC0→∞” value came out at 14.1 ± 2.2 mg·h/g; the CL stood at 16.7 ± 2.5 mL/min/kg; the “MRT(0-t), mean retention time” value is on record as 15.2 ± 4.5 h. In series [2], the Tmax stood at 3.3 ± 1.2 h and the “t1/2β, elimination half-life” value was 10.0 ± 1.9 h.

As to `CC[C@H](C)[C@H](NC(=O)[C@@H]1CCCN1C(=O)[C@@H](NC(=O)[C@H](C)N)C(C)C)C(=O)N[C@@H](C)C(=O)N[C@@H](CCC(N)=O)C(=O)N[C@@H](CCCCN)C(=O)N[C@@H](CC(=O)O)C(=O)N[C@@H](CCC(=O)O)C(=O)N[C@H](C(=O)N[C@@H](CC(=O)O)C(=O)N[C@@H](CCC(=O)O)C(=O)N[C@@H](CSC1=C(C=CC2=[N+](CCCCCC(=O)O)c3ccccc3C2(C)C)CCCC1=CC=C1N(CCCCCC(=O)O)c2ccccc2C1(C)C)C(=O)NCC(=O)O)C(C)C` [molecule 3] (H-AVPIAQKDEVDEC(X1)G-OH; N-terminus assumed), the “labelling ratio of H460 cells at the third generation” value in the series on H460 cells is reported as 3.89%. Besides, the tissue uptake at 48 h in series [1] (setting [3]) came to 5.3 ± 0.8 %ID/g. In series [2], the AUC0→t stood at 26.6 ± 8.9 mg·h/g; the “AUC0→∞” value was 34.6 ± 12.2 mg·h/g; the CL is 7.33 ± 2.5 mL/min/kg; the “MRT(0-t), mean retention time” value was determined as 10.7 ± 1.8 h. In series [2], the Tmax turned out to be 6.7 ± 2.3 h and the “t1/2β, elimination half-life” value is given as 10.6 ± 2.8 h.

As usually defined, the Tmax is the time from dosing to the highest level.
